The values that follow come from paper PMC11638965, “Leveraging Dual-Ligase Recruitment to Enhance Protein Degradation via a Heterotrivalent Proteolysis Targeting Chimera” (Journal of the American Chemical Society, 2024).

Holding throughout (type): cell-based
Experiment [1] deals with CRBN (Homo sapiens, UniProt Q96SW2). The experiment is described as follows: Western blot dose-response degradation in HEK293 cells. More on the design: Western blot data for BET, CRBN and VHL protein levels; endogenous in cells; host or cells: HEK293 (ATCC). Conditions: for DC50: HEK293 cells, 6 h, Western blot, mean ± S.E.M. of three experiments, values marked b mean ± S.D. of two; for fold increase in CRBN degradation vs nonmethylated matched pair: 27 vs 26, 24 vs 23. The method, then: (§1) HEK293 cells were obtained from ATCC. HEK293 was cultured in DMEM supplemented with 10% (v/v) fetal bovine serum (FBS), 1% […] and 1% (v/v) penicillin/streptomycin (pen/strep) at 37 °C, 5% CO2, and 95% humidity.
(§2) HEK293 cells were plated at a density of 5 × 10^5 cells per well of a six well plate a day prior to initiation of the experiment. Compounds were dissolved to a 10 mM concentrated stock solution in DMSO from which the compounds were further diluted to a working concentration range of 1 μM to 100 pM in DMEM and was subsequently added to cells at the initiation of the experiment. An additional vehicle control was added to cells alongside compound treatments. Cells were left to incubate with compound for 6 h at 37 °C, 5% CO2, and 95% humidity. Cells were then subsequently washed twice with PBS before being harvested in RIPA buffer supplemented with protease inhibitor cocktail and Benzonase Nuclease before being store at −20 °C.
(§3) Protein concentration was determined using the BCA assay. Samples were then prepared in LDS buffer containing 5% 1 M DTT and subsequently loaded onto NuPAGE 4–12% Bis-Tris Midi gels, followed by the transfer of the proteins onto nitrocellulose membranes. The membranes were blocked for 1 h prior to incubation with the primary antibodies using 5% Milk TBST. Membranes were incubated at 4 °C in either BRD4(Ab128874), BRD3(Ab50818), BRD2(Ab139690), VHL(CST#68547) and CRBN(CST#71810) primary antibody overnight. Following overnight incubation, the membranes were incubated with complementary IRDye 800CW secondary antibody and a hFAB Rhodamine Anti-Tubulin Primary Antibody (loading control) for 1 h and then imaged with a Bio-Rad imager. All Western blots were analyzed for band intensities using Image Lab (Bio-Rad). The data extracted from these blots were then plotted and analyzed using Prism (v. 10.2.2, GraphPad). Linear regression curve fitting was used to calculate pDC50 values. The standard deviation of the pDC50 was calculated for all compounds that had two independent repeats and the standard error of the mean calculated for all compounds that had three independent repeats. All Western blotting figures were developed in Adobe illustrator.

For experiment [2], the target named is T1, BRD3 (Homo sapiens, UniProt Q15059).
T1 construct: HiBiT, is appended to the N-terminus of endogenous BRD2, BRD3, and BRD4; endogenous in cells
Described as above. Conditions: 6 h, mean ± S.E.M. of three experiments, values marked b mean ± S.D. of two. How it is done:
as §1, §2, §3

Experiment [3] addresses T2, BRD4^Long (Homo sapiens, UniProt O60885).
T2 construct: Western blot data for BET, CRBN and VHL protein levels; endogenous in cells; host or cells: HEK293 (ATCC)
The experiment is described as above. Particulars: for DC50: HEK293 cells, 6 h, Western blot, mean ± S.E.M. of three experiments, values marked b mean ± S.D. of two. The method, then: as §1, §2, §3
For orientation: A western blot detects proteins with antibodies after separation by electrophoresis.

The target of experiment [4] is T3, BRD4^Short (Homo sapiens, UniProt O60885).
T3 construct: Western blot data for BET, CRBN and VHL protein levels; endogenous in cells; host or cells: HEK293 (ATCC)
The experiment is described as above. Particulars: 6 h, mean ± S.E.M. of three experiments, values marked b mean ± S.D. of two. The method, then:
as §1, §2, §3

In experiment [5] the target is T4, BRD2 (Homo sapiens, UniProt P25440).
T4 construct: HiBiT, is appended to the N-terminus of endogenous BRD2, BRD3, and BRD4; endogenous in cells
The description is as above. Conditions: 6 h, mean ± S.E.M. of three experiments, values marked b mean ± S.D. of two. The method, then:
as §1, §2, §3

The target of experiment [6] is T4, BRD2. The experiment can be described thus: Live cell kinetic HiBiT degradation assay, HiBiT-BRD2 HEK293 cells. Particulars: for DC50: HiBiT-BRD2 CRISPR knock-in HEK293 cells, live cell kinetic degradation, 24 h, read-out: Dmax 50 BRD2; for λmax BRD2 (degradation rate): HiBiT-BRD2 knock-in HEK293 cells. The method, then: HEK293 HiBiT-BRD2 (LgBiT stable), HEK293 HiBiT-BRD3 (LgBiT stable), and HEK293 HiBiT-BRD4 (LgBiT stable) were created using CRISPR/Cas9 to insert at HiBiT tag at the N-terminal genomic loci of BRD2, BRD3, or BRD4 in a cell line stably expressing LgBiT protein as described previously.[23]
For kinetic degradation experiments, HEK293 HiBiT-BRD2, 3, or 4 (LgBiT stable) cells and HEK293 HiBiT-BRD4 (LgBiT) CRBN KO and VHL KO cells were plated at 20,000 cells/well in DMEM +10% FBS in white 96-well tissue culture plates and allowed to adhere overnight. The next day, media was removed and 90 μL of prewarmed CO2-independent medium (Gibco) containing Endurazine (Promega) at a 1:100 dilution from stock was added. Plates were incubated at 37 °C for 3 h to allow luminescence to equilibrate. A threefold dilution series of each PROTAC at 10x the desired final concentration was prepared (with the amount of DMSO in each treatment condition kept constant). After luminescence equilibration, a preread luminescence measurement was taken (prior to compound addition) to allow for baseline normalization to account for possible plating differences. Cells were then treated with 10 μL of the prepared PROTAC dilution series (in triplicate or quadruplicate). Treated plates were placed in a GloMax Discover luminometer (Promega) prewarmed to 37 °C and luminescence measurements were obtained every 7 min for 24 h. Kinetic degradation plots were obtained by first normalizing time course luminescence readings in each well to the preread measurement, then to the average value of the DMSO only control at each time point. Data was analyzed using GraphPad Prism (version 8) and excel. Dmax values were identified as the lowest luminescence reading in each well. Rate constant values were calculated using a one phase exponential decay Y = (Y0-Plateau) e(K*^X) + Plateau using Prism (Y0 constrained to 1). Dmax 50 values were calculated by plotting Dmax as a function of concentration, then fitting plots using the following equation: [drawing 1] to determine IC50.
For orientation: With HiBiT, luminescence reflects the tagged protein that the partner subunit can reach.

T1 sequence (Q15059 whole entry): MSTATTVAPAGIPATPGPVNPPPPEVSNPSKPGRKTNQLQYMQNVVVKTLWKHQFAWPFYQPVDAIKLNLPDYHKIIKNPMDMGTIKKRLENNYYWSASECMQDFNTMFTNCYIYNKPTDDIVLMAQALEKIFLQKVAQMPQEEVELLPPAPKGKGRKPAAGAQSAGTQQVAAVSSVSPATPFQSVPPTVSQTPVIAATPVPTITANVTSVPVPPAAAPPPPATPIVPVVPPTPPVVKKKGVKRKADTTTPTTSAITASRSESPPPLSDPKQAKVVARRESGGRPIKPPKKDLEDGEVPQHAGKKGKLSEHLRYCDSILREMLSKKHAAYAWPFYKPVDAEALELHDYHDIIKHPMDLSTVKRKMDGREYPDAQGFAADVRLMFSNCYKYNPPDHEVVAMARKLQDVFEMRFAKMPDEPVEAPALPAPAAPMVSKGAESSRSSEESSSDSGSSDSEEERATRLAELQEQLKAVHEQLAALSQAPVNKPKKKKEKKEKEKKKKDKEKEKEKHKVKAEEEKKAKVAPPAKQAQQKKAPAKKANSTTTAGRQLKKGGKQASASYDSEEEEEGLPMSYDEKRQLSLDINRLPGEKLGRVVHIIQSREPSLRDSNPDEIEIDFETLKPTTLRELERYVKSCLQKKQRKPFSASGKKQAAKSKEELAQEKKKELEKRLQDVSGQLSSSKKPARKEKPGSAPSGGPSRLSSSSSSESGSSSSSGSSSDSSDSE
Sequence of CRBN (Q96SW2 whole entry): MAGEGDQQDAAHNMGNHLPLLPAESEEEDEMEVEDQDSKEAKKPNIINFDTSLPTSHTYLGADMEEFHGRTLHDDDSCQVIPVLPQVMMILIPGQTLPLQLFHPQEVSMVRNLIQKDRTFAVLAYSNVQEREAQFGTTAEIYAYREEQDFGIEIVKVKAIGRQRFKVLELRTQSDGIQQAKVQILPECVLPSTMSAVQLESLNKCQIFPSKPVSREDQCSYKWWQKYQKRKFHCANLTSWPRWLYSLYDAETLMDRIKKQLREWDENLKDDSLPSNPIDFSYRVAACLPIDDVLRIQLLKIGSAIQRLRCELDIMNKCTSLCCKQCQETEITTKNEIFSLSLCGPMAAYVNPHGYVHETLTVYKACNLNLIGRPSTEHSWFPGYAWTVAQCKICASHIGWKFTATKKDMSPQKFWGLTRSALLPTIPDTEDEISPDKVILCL
T4 sequence (P25440 whole entry): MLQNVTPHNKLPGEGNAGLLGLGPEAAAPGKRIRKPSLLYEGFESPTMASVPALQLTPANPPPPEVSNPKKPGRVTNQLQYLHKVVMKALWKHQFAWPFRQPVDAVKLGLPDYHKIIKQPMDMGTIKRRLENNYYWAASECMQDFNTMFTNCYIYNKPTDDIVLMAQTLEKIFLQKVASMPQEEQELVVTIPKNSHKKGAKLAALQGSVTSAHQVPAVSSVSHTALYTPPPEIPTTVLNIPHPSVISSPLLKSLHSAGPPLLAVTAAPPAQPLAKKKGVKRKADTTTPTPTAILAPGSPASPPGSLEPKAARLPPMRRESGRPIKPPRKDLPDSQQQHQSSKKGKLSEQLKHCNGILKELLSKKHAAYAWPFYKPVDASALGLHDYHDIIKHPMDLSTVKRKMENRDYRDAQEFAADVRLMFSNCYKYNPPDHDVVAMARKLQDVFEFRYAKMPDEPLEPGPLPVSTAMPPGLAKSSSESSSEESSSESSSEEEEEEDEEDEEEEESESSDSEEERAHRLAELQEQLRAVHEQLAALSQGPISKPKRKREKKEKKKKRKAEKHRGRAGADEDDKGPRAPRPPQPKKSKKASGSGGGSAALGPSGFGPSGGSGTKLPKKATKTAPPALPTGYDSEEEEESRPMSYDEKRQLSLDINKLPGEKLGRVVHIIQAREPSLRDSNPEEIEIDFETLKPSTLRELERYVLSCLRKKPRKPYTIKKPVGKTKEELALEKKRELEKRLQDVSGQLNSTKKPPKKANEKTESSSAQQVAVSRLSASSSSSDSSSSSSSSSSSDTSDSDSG

As for `Cc1ncsc1-c1ccc(CNC(=O)[C@@H]2C[C@@H](O)CN2C(=O)[C@@H](NC(=O)COCC(C)(COCCOCCOCCNc2cccc3c2C(=O)N(C2CCC(=O)NC2=O)C3=O)COCCOCCOC(=O)C[C@@H]2N=C(c3ccc(Cl)cc3)c3c(sc(C)c3C)-n3c(C)nnc32)C(C)(C)C)cc1` (mixture of isomers) [AB3064 (25), (14S)-8-((2-(2-(2-((2-(2,6-dioxopiperidin-3-yl)-1,3-dioxoisoindolin-4-yl)amino)ethoxy)ethoxy)ethoxy)methyl)-14-((2S,4R)-4-hydroxy-2-((4-(4-methylthiazol-5-yl)benzyl)carbamoyl)pyrrolidine-1-carbonyl)-8,15,15-trimethyl-12-oxo-3,6,10-trioxa-13-azahexadecyl 2-((S)-4-(4-chlorophenyl)-2,3,9-trimethyl-6H-thieno[3,2-f][1,2,4]triazolo[4,3-a][1,4]diazepin-6-yl)acetate], the DC50 was found to be 0.48 ± 0.37 µM in experiment [1]; 0.028 ± 0.0008 µM in experiment [2]; 0.012 ± 0.0024 µM in experiment [3]; 0.018 ± 0.0033 µM in experiment [4]; 0.075 ± 0.02 µM in experiment [5]; 0.074 µM in experiment [6]. The “λmax BRD2 (degradation rate)” value in experiment [6] was determined as 1.34 h⁻¹.

Regarding `Cc1ncsc1-c1ccc(CNC(=O)[C@@H]2C[C@@H](O)CN2C(=O)[C@@H](NC(=O)COCC(C)(COCCOCCOCCNc2cc3c(cc2F)C(=O)N(C2CCC(=O)NC2=O)C3=O)COCCOCCOC(=O)C[C@@H]2N=C(c3ccc(Cl)cc3)c3c(sc(C)c3C)-n3c(C)nnc32)C(C)(C)C)cc1` (mixture of isomers) [AB3065 (28), (14S)-8-((2-(2-(2-((2-(2,6-dioxopiperidin-3-yl)-6-fluoro-1,3-dioxoisoindolin-5-yl)amino)ethoxy)ethoxy)ethoxy)methyl)-14-((2S,4R)-4-hydroxy-2-((4-(4-methylthiazol-5-yl)benzyl)carbamoyl)pyrrolidine-1-carbonyl)-8,15,15-trimethyl-12-oxo-3,6,10-trioxa-13-azahexadecyl 2-((S)-4-(4-chlorophenyl)-2,3,9-trimethyl-6H-thieno[3,2-f][1,2,4]triazolo[4,3-a][1,4]diazepin-6-yl)acetate], the DC50 in experiment [1] amounted to 0.31 ± 0.2 µM; in experiment [2], 0.014 ± 0.0075 µM; in experiment [3], 0.01 ± 0.0044 µM; in experiment [4], 0.012 ± 0.0058 µM; in experiment [5], 0.021 ± 0.0054 µM; in experiment [6], 0.023 µM. Further, the “λmax BRD2 (degradation rate)” value in experiment [6] worked out at 1.46 h⁻¹.

In the case of `Cc1ncsc1-c1ccc([C@H](C)NC(=O)[C@@H]2C[C@@H](O)CN2C(=O)[C@@H](NC(=O)COCC(C)(COCCOCCOCCNc2cccc3c2C(=O)N(C2CCC(=O)NC2=O)C3=O)COCCOCCOCCOC(=O)C[C@@H]2N=C(c3ccc(Cl)cc3)c3c(sc(C)c3C)-n3c(C)nnc32)C(C)(C)C)cc1` (mixture of isomers) [AB3066 (24), (17S)-11-((2-(2-(2-((2-(2,6-dioxopiperidin-3-yl)-1,3-dioxoisoindolin-4-yl)amino)ethoxy)ethoxy)ethoxy)methyl)-17-((2S,4R)-4-hydroxy-2-(((S)-1-(4-(4-methylthiazol-5-yl)phenyl)ethyl)carbamoyl)pyrrolidine-1-carbonyl)-11,18,18-trimethyl-15-oxo-3,6,9,13-tetraoxa-16-azanonadecyl 2-((S)-4-(4-chlorophenyl)-2,3,9-trimethyl-6H-thieno[3,2-f][1,2,4]triazolo[4,3-a][1,4]diazepin-6-yl)acetate], in experiment [1] (DC50, HEK293 Western blot), the “fold increase in CRBN degradation vs nonmethylated matched pair” value is reported as around 2.6 fold. Moreover, the DC50 in experiment [1] was 0.081 ± 0.011 µM; in experiment [2], 0.0089 ± 0.0015 µM; in experiment [3], 0.0068 ± 0.0013 µM; in experiment [4] it was 0.0059 ± 0.0023 µM; in experiment [5], 0.043 ± 0.0011 µM; in experiment [6] it was 0.0073 µM. Further, in experiment [6], the “λmax BRD2 (degradation rate)” value was 2.04 h⁻¹.

For `Cc1ncsc1-c1ccc([C@H](C)NC(=O)[C@@H]2C[C@@H](O)CN2C(=O)[C@@H](NC(=O)COCC(C)(COCCOCCOCCNc2cc3c(cc2F)C(=O)N(C2CCC(=O)NC2=O)C3=O)COCCOCCOCCOC(=O)C[C@@H]2N=C(c3ccc(Cl)cc3)c3c(sc(C)c3C)-n3c(C)nnc32)C(C)(C)C)cc1` (mixture of isomers) [AB3067 (27), (17S)-11-((2-(2-(2-((2-(2,6-dioxopiperidin-3-yl)-6-fluoro-1,3-dioxoisoindolin-5-yl)amino)ethoxy)ethoxy)ethoxy)methyl)-17-((2S,4R)-4-hydroxy-2-(((S)-1-(4-(4-methylthiazol-5-yl)phenyl)ethyl)carbamoyl)pyrrolidine-1-carbonyl)-11,18,18-trimethyl-15-oxo-3,6,9,13-tetraoxa-16-azanonadecyl 2-((S)-4-(4-chlorophenyl)-2,3,9-trimethyl-6H-thieno[3,2-f][1,2,4]triazolo[4,3-a][1,4]diazepin-6-yl)acetate], the “fold increase in CRBN degradation vs nonmethylated matched pair” value in experiment [1] (DC50, HEK293 Western blot) is around 2.6 fold. The DC50 in experiment [1] is 0.075 ± 0.014 µM; in experiment [2], 0.0016 ± 0.0003 µM; in experiment [3], 0.0023 ± 0.0004 µM; in experiment [4], 0.0021 ± 0.0003 µM; in experiment [5], 0.015 ± 0.0021 µM; in experiment [6] it was 0.002 µM. The “λmax BRD2 (degradation rate)” value in experiment [6] was found to be 2.37 h⁻¹.

On to `Cc1ncsc1-c1ccc(CNC(=O)[C@@H]2C[C@@H](O)CN2C(=O)[C@@H](NC(=O)COCC(C)(COCCOCCNc2cc3c(cc2F)C(=O)N(C2CCC(=O)NC2=O)C3=O)COCCOCCOC(=O)C[C@@H]2N=C(c3ccc(Cl)cc3)c3c(sc(C)c3C)-n3c(C)nnc32)C(C)(C)C)cc1` (mixture of isomers) [AB3125 (30), (14S)-8-((2-(2-((2-(2,6-dioxopiperidin-3-yl)-6-fluoro-1,3-dioxoisoindolin-5-yl)amino)ethoxy)ethoxy)methyl)-14-((2S,4R)-4-hydroxy-2-((4-(4-methylthiazol-5-yl)benzyl)carbamoyl)pyrrolidine-1-carbonyl)-8,15,15-trimethyl-12-oxo-3,6,10-trioxa-13-azahexadecyl 2-((S)-4-(4-chlorophenyl)-2,3,9-trimethyl-6H-thieno[3,2-f][1,2,4]triazolo[4,3-a][1,4]diazepin-6-yl)acetate], for which the “fold decrease in CRBN degradation vs 26” value in experiment [1] (DC50, HEK293 Western blot) is given as 4.5 fold. Besides, the DC50 came out at 0.9 ± 0.72 µM in experiment [1]; 0.0064 ± 0.0008 µM in experiment [2]; 0.004 ± 0.0021 µM in experiment [3]; 0.0044 ± 0.0024 µM in experiment [4]; 0.019 ± 0.0072 µM in experiment [5]; 0.031 µM in experiment [6]. Also, in experiment [3] (DC50, HEK293 Western blot), the “fold decrease in BRD4^Long degradation vs 26” value stood at 5.3 fold. The “λmax BRD2 (degradation rate)” value in experiment [6] is 2.63 h⁻¹.
